According to ChEMBL document CHEMBL1201862, “PubChem BioAssay data set” (2004):
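Dose response: 5 concentrations. Exposure: 48 h. Format: 96-well plates. Endpoint: linear interpolation; highest concentration if not reached. Here, GI50 denotes the concentration required for 50% inhibition of growth.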 Active and inactive are the calls of the source. Rule as the data show it: active = GI50 up to about 1.1 µM and inactive = higher.

Columns and labels:
Assay in all cases: growth of human tumour cells (NCI), 48 h
HL-60 = tested on: HL-60
OVCAR-8 = tested on: OVCAR-8
MDA-N = tested on: MDA-N
HOP-92 = tested on: HOP-92
HCT-116 = tested on: HCT-116
MDA-MB-435 = tested on: MDA-MB-435
LOX IMVI = tested on: LOX IMVI
K562 = tested on: K562
MOLT-4 = tested on: MOLT-4
NCI-H522 = tested on: NCI-H522
CCRF-CEM = tested on: CCRF-CEM
NCI-H23 = tested on: NCI-H23
Hs-578T = tested on: Hs-578T
SF-539 = tested on: SF-539
HCT-15 = tested on: HCT-15
OVCAR-3 = tested on: OVCAR-3
SNB-75 = tested on: SNB-75
OVCAR-4 = tested on: OVCAR-4
SF-295 = tested on: SF-295
RPMI-8226 = tested on: RPMI-8226
ACHN = tested on: ACHN
SF-268 = tested on: SF-268
A549 = tested on: A549
T47D = tested on: T47D
UO-31 = tested on: UO-31
DU-145 = tested on: DU-145
UACC-62 = tested on: UACC-62
COLO 205 = tested on: COLO 205
Malme-3M = tested on: Malme-3M
HT-29 = tested on: HT-29
HOP-62 = tested on: HOP-62
BT-549 = tested on: BT-549
SR = tested on: SR
M14 = tested on: M14
MDA-MB-231 = tested on: MDA-MB-231
U-251 = tested on: U-251
SW-620 = tested on: SW-620
786-0 = tested on: 786-0
SK-MEL-2 = tested on: SK-MEL-2
SK-OV-3 = tested on: SK-OV-3
EKVX = tested on: EKVX
A498 = tested on: A498
IGROV-1 = tested on: IGROV-1
KM12 = tested on: KM12
RXF 393 = tested on: RXF 393
SK-MEL-5 = tested on: SK-MEL-5
MCF7 = tested on: MCF7
UACC-257 = tested on: UACC-257
OVCAR-5 = tested on: OVCAR-5
TK-10 = tested on: TK-10
NCI/ADR-RES = tested on: NCI/ADR-RES
PC-3 = tested on: PC-3
CAKI-1 = tested on: CAKI-1
SNB-19 = tested on: SNB-19
SN12C = tested on: SN12C
SK-MEL-28 = tested on: SK-MEL-28
NCI-H460 = tested on: NCI-H460
NCI-H226 = tested on: NCI-H226

How did the GI50 (HL-60) turn out when CC(=O)NNc1nc(-c2ccc([N+](=O)[O-])cc2)c(C#N)c(=O)n1C was run?
Its GI50 is 25.9 µM (inactive).

What about the GI50 (OVCAR-8) of the same compound?
Its GI50 is 27 µM (inactive).

What about the GI50 (MDA-N) of the same compound?
Its GI50 is 86.7 µM (inactive).

What about the GI50 (HOP-92) of the same compound?
The GI50 was 13.5 µM (inactive).

What about the GI50 (HCT-116) of the same compound?
Its GI50 is 34.5 µM (inactive).

And the GI50 (MDA-MB-435)?
The GI50 was 50.6 µM (inactive).

And the GI50 (LOX IMVI)?
Its GI50 is 16.9 µM (inactive).

What about the GI50 (K562) of the same compound?
The GI50 was 24.3 µM (inactive).

And the GI50 (MOLT-4)?
Its GI50 is 36.8 µM (inactive).

What about the GI50 (NCI-H522) of the same compound?
Its GI50 is 22.1 µM (inactive).

And the GI50 (CCRF-CEM)?
Its GI50 is 50.7 µM (inactive).

What about the GI50 (NCI-H23) of the same compound?
The GI50 was 29.4 µM (inactive).

And the GI50 (Hs-578T)?
The GI50 was 27.1 µM (inactive).

And the GI50 (SF-539)?
Its GI50 is 18.3 µM (inactive).

What about the GI50 (HCT-15) of the same compound?
The GI50 was 29.3 µM.

And the GI50 (OVCAR-3)?
The GI50 was 15.3 µM (inactive).

What about the GI50 (SNB-75) of the same compound?
The GI50 was 18.9 µM (inactive).

And the GI50 (OVCAR-4)?
Its GI50 is 20.1 µM (inactive).

What about the GI50 (SF-295) of the same compound?
The GI50 was 47.5 µM (inactive).

What about the GI50 (RPMI-8226) of the same compound?
The GI50 was 21.1 µM (inactive).

And the GI50 (ACHN)?
Its GI50 is > 100 µM (inactive).

What about the GI50 (SF-268) of the same compound?
Its GI50 is 33.1 µM (inactive).

What about the GI50 (A549) of the same compound?
Its GI50 is > 100 µM (inactive).

And the GI50 (T47D)?
The GI50 was > 100 µM (inactive).

And the GI50 (UO-31)?
The GI50 was 37.6 µM (inactive).

What about the GI50 (DU-145) of the same compound?
Its GI50 is 34.2 µM (inactive).

What about the GI50 (UACC-62) of the same compound?
Its GI50 is 66.8 µM (inactive).

What about the GI50 (COLO 205) of the same compound?
The GI50 was 44.6 µM (inactive).

What about the GI50 (Malme-3M) of the same compound?
Its GI50 is > 100 µM (inactive).

And the GI50 (HT-29)?
Its GI50 is 99.3 µM (inactive).

What about the GI50 (HOP-62) of the same compound?
Its GI50 is 26.9 µM (inactive).

What about the GI50 (BT-549) of the same compound?
The GI50 was 1.88 µM (inactive).

And the GI50 (SR)?
Its GI50 is 13.9 µM (inactive).

What about the GI50 (M14) of the same compound?
The GI50 was > 100 µM (inactive).

What about the GI50 (MDA-MB-231) of the same compound?
Its GI50 is 15.8 µM (inactive).

What about the GI50 (U-251) of the same compound?
Its GI50 is 20.8 µM (inactive).

And the GI50 (SW-620)?
The GI50 was 33.4 µM (inactive).

And the GI50 (786-0)?
The GI50 was 22.1 µM (inactive).

And the GI50 (SK-MEL-2)?
The GI50 was > 100 µM (inactive).

And the GI50 (SK-OV-3)?
The GI50 was > 100 µM (inactive).

What about the GI50 (EKVX) of the same compound?
The GI50 was 38 µM (inactive).

What about the GI50 (A498) of the same compound?
The GI50 was 25.5 µM (inactive).

What about the GI50 (IGROV-1) of the same compound?
The GI50 was 16.8 µM (inactive).

What about the GI50 (KM12) of the same compound?
The GI50 was 54.1 µM (inactive).

What about the GI50 (RXF 393) of the same compound?
Its GI50 is 57 µM (inactive).

What about the GI50 (SK-MEL-5) of the same compound?
The GI50 was > 100 µM (inactive).

What about the GI50 (MCF7) of the same compound?
The GI50 was 28.5 µM (inactive).

What about the GI50 (UACC-257) of the same compound?
The GI50 was > 100 µM (inactive).

What about the GI50 (OVCAR-5) of the same compound?
Its GI50 is 27.5 µM (inactive).

What about the GI50 (TK-10) of the same compound?
The GI50 was 24 µM (inactive).

What about the GI50 (NCI/ADR-RES) of the same compound?
Its GI50 is > 100 µM (inactive).

And the GI50 (PC-3)?
The GI50 was 37.7 µM (inactive).

What about the GI50 (CAKI-1) of the same compound?
The GI50 was 79.8 µM (inactive).

What about the GI50 (SNB-19) of the same compound?
Its GI50 is > 100 µM (inactive).

And the GI50 (SN12C)?
Its GI50 is > 100 µM (inactive).

And the GI50 (SK-MEL-28)?
Its GI50 is > 100 µM (inactive).

And the GI50 (NCI-H460)?
The GI50 was > 100 µM (inactive).

How did the GI50 (HL-60) turn out when O=C(O)C1CCc2ccc3ccccc3c2C1c1cccc2ccccc12 (centres undefined) was run?
The GI50 was 26.6 µM (inactive).

And the GI50 (OVCAR-8)?
Its GI50 is 24.2 µM (inactive).

What about the GI50 (MDA-N) of the same compound?
Its GI50 is 22.1 µM (inactive).

What about the GI50 (HOP-92) of the same compound?
Its GI50 is 19.1 µM (inactive).

What about the GI50 (HCT-116) of the same compound?
Its GI50 is 15.6 µM (inactive).

What about the GI50 (MDA-MB-435) of the same compound?
Its GI50 is 48.6 µM (inactive).

And the GI50 (LOX IMVI)?
The GI50 was 19.5 µM (inactive).

What about the GI50 (K562) of the same compound?
The GI50 was 32.3 µM (inactive).

And the GI50 (MOLT-4)?
The GI50 was 19.8 µM (inactive).

And the GI50 (NCI-H522)?
Its GI50 is 21.4 µM (inactive).

What about the GI50 (CCRF-CEM) of the same compound?
The GI50 was 19.1 µM (inactive).

And the GI50 (Hs-578T)?
Its GI50 is 33.2 µM (inactive).

What about the GI50 (SF-539) of the same compound?
Its GI50 is 23.8 µM (inactive).

And the GI50 (HCT-15)?
Its GI50 is 19.4 µM.

What about the GI50 (OVCAR-3) of the same compound?
Its GI50 is 16.3 µM (inactive).

What about the GI50 (SNB-75) of the same compound?
The GI50 was 22.9 µM (inactive).

What about the GI50 (OVCAR-4) of the same compound?
Its GI50 is 29 µM (inactive).

What about the GI50 (SF-295) of the same compound?
Its GI50 is 23.9 µM (inactive).

And the GI50 (RPMI-8226)?
The GI50 was 27.9 µM (inactive).

And the GI50 (ACHN)?
The GI50 was 29.6 µM (inactive).

And the GI50 (SF-268)?
Its GI50 is 27.9 µM (inactive).

What about the GI50 (A549) of the same compound?
The GI50 was 16.5 µM (inactive).

What about the GI50 (T47D) of the same compound?
The GI50 was 43.9 µM (inactive).

And the GI50 (NCI-H226)?
Its GI50 is 24.7 µM (inactive).

What about the GI50 (UO-31) of the same compound?
The GI50 was 25.8 µM (inactive).

What about the GI50 (DU-145) of the same compound?
Its GI50 is 25.8 µM (inactive).

What about the GI50 (UACC-62) of the same compound?
The GI50 was 15.1 µM (inactive).

What about the GI50 (COLO 205) of the same compound?
The GI50 was 25.9 µM (inactive).

And the GI50 (Malme-3M)?
Its GI50 is 22.4 µM (inactive).

What about the GI50 (HT-29) of the same compound?
The GI50 was 17.4 µM (inactive).

What about the GI50 (HOP-62) of the same compound?
The GI50 was 19 µM (inactive).

And the GI50 (BT-549)?
Its GI50 is 19.1 µM (inactive).

And the GI50 (SR)?
The GI50 was 20.8 µM (inactive).

What about the GI50 (M14) of the same compound?
The GI50 was 17.6 µM (inactive).

What about the GI50 (MDA-MB-231) of the same compound?
Its GI50 is 30.2 µM (inactive).

What about the GI50 (U-251) of the same compound?
The GI50 was 17.9 µM (inactive).

And the GI50 (SW-620)?
The GI50 was 28.2 µM (inactive).

And the GI50 (786-0)?
Its GI50 is 18.2 µM (inactive).

What about the GI50 (SK-MEL-2) of the same compound?
The GI50 was 18.2 µM (inactive).

What about the GI50 (SK-OV-3) of the same compound?
Its GI50 is 36.1 µM (inactive).

What about the GI50 (EKVX) of the same compound?
Its GI50 is 30.5 µM (inactive).

What about the GI50 (A498) of the same compound?
The GI50 was 30.8 µM (inactive).

What about the GI50 (IGROV-1) of the same compound?
Its GI50 is 22.9 µM (inactive).

What about the GI50 (KM12) of the same compound?
Its GI50 is 21.9 µM (inactive).

And the GI50 (RXF 393)?
The GI50 was 19 µM (inactive).

And the GI50 (SK-MEL-5)?
Its GI50 is 16.5 µM (inactive).

And the GI50 (MCF7)?
Its GI50 is 34.7 µM (inactive).

And the GI50 (UACC-257)?
Its GI50 is 25.9 µM (inactive).

And the GI50 (OVCAR-5)?
The GI50 was 18.4 µM (inactive).

And the GI50 (TK-10)?
The GI50 was 44.5 µM (inactive).

And the GI50 (NCI/ADR-RES)?
The GI50 was 23.3 µM (inactive).

And the GI50 (PC-3)?
The GI50 was 19.3 µM (inactive).

And the GI50 (CAKI-1)?
Its GI50 is 68.2 µM (inactive).

And the GI50 (SNB-19)?
Its GI50 is 19.3 µM (inactive).

And the GI50 (SN12C)?
The GI50 was 24.2 µM (inactive).

What about the GI50 (SK-MEL-28) of the same compound?
Its GI50 is 18.7 µM (inactive).

What about the GI50 (NCI-H460) of the same compound?
The GI50 was 20 µM (inactive).
